In the Kinase Knowledgebase extract (Sharma et al. 2016):
pIC50: −log10 of the molar value.

Target: PIK3CG (human) (UniProt P48736)
Assay: Inhibition of PIK3CG Kinase Activity

PIK3CG (human), sequence (P48736 whole entry, looked up): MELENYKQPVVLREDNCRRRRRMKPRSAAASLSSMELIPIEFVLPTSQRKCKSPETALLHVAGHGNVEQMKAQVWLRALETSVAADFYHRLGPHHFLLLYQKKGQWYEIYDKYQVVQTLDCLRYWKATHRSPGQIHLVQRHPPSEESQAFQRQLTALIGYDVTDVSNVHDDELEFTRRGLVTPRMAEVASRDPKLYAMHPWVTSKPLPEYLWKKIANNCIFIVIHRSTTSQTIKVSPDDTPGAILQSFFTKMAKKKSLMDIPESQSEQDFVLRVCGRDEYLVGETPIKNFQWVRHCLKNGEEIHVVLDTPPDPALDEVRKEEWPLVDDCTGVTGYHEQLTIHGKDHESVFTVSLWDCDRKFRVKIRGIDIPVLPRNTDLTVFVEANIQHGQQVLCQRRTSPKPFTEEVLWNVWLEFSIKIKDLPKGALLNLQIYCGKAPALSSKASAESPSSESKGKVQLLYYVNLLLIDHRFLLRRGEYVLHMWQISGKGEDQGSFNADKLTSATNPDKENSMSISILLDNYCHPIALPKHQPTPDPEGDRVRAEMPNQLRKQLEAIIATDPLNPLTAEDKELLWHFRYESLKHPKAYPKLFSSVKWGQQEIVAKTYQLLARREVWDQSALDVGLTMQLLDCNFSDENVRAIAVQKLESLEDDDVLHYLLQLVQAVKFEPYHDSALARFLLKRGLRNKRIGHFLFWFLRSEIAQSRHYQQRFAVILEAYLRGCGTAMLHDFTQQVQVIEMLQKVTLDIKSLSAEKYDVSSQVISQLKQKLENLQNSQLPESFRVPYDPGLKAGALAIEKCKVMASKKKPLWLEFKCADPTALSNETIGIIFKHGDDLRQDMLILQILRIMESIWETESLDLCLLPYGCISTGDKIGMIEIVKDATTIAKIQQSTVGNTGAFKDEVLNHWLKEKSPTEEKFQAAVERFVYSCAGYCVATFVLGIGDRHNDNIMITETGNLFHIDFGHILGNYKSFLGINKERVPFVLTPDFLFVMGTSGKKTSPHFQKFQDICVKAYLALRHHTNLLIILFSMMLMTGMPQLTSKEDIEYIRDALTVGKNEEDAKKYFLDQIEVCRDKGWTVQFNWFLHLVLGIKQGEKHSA

| pIC50 | Compound |
| --- | --- |
| 5.48 | O=C(Nc1nnn[nH]1)c1oc2ccc(Cl)cc2c1OC1CCCC1 |
| 6.66 | COc1ccc2oc(C(=O)Nc3nnn[nH]3)c(OCC3(C)CC3)c2c1 |
| 6.73 | COc1ccc2oc(C(=O)Nc3nnn[nH]3)c(OC3CCCCCCC3)c2c1 |
| 6.16 | COc1ccc2oc(C(=O)Nc3nnn[nH]3)c(OCC3CC3)c2c1 |
| 6.52 | CCC(Oc1c(C(=O)Nc2nnn[nH]2)oc2ccc(OC)cc12)C1CCCCC1 (centres undefined) |
| 7.17 | COc1ccc2oc(C(=O)Nc3nnn[nH]3)c(OCC3C4CCC(C4)C3C)c2c1 (centres undefined) |
| 6.97 | COc1ccc2oc(C(=O)Nc3nnn[nH]3)c(OCC3CCCCCC3)c2c1 |
| 6.80 | COc1ccc2oc(C(=O)Nc3nnn[nH]3)c(OCC3CCCC3)c2c1 |
| 6.82 | COc1ccc2oc(C(=O)Nc3nnn[nH]3)c(OC(C)C3CCCC3)c2c1 (centres undefined) |
| 6.47 | COc1ccc2oc(C(=O)Nc3nnn[nH]3)c(OC3CC4CCC3C4)c2c1 (centres undefined) |
| 6.50 | COc1ccc2oc(C(=O)Nc3nnn[nH]3)c(OCC3CC=CCC3)c2c1 (centres undefined) |

Continued, molecule first:

| Compound | pIC50 |
| --- | --- |
| CC1(OCOc2c(C(=O)Nc3nnn[nH]3)oc3ccc(Cl)cc23)CC1 | 5.84 |
| COc1ccc2oc(C(=O)Nc3nnn[nH]3)c(OC3CCCC3)c2c1 | 5.98 |
| COc1ccc2oc(C(=O)Nc3nnn[nH]3)c(OC3CCCCC3)c2c1 | 6.59 |
| CCC1(COc2c(C(=O)Nc3nnn[nH]3)oc3ccc(OC)cc23)COC1 | 5.84 |
| COc1ccc2oc(C(=O)Nc3nnn[nH]3)c(OCC3(C)COC3)c2c1 | 5.44 |
| COc1ccc2oc(C(=O)Nc3nnn[nH]3)c(OC3CCC4CCCCC4C3)c2c1 (centres undefined) | 6.49 |
| COc1ccc2oc(C(=O)Nc3nnn[nH]3)c(OC3CCC(C)C(C)C3)c2c1 (centres undefined) | 7.12 |
| COc1ccc2oc(C(=O)Nc3nnn[nH]3)c(OC3CC(C)CC(C)C3)c2c1 (centres undefined) | 7.39 |
| COc1ccc2oc(C(=O)Nc3nnn[nH]3)c(OCC3CC=CCC3C)c2c1 (centres undefined) | 6.73 |
| COc1ccc2oc(C(=O)Nc3nnn[nH]3)c(OCC3CCC3)c2c1 | 6.76 |
| COc1ccc2oc(C(=O)Nc3nnn[nH]3)c(OC3CCC(C4CCCCC4)CC3)c2c1 (centres undefined) | 6.42 |
| COc1ccc2oc(C(=O)Nc3nnn[nH]3)c(OC3CCCCCC3)c2c1 | 7.01 |
| COc1ccc2oc(C(=O)Nc3nnn[nH]3)c(OC3CCOCC3)c2c1 | 5.93 |
| COc1ccc2oc(C(=O)Nc3nnn[nH]3)c(OC(C)C3CC3)c2c1 (centres undefined) | 5.84 |
| COc1ccc2oc(C(=O)Nc3nnn[nH]3)c(OC3CC(C)CC3C)c2c1 (centres undefined) | 6.54 |
| COc1ccc2oc(C(=O)Nc3nnn[nH]3)c(OC3CCC3)c2c1 | 6.40 |
| COc1ccc2oc(C(=O)Nc3nnn[nH]3)c(OC3CC(C)CCC3C)c2c1 (centres undefined) | 6.43 |
| COc1ccc2oc(C(=O)Nc3nnn[nH]3)c(OCC3CCCCC3)c2c1 | 6.08 |
